Results on 1 compound are retold here after patent publication US10322088B2, “Sustained-release composition, method for fabricating, and use thereof” (NATIONAL TSING HUA UNIVERSITY, priority 2017, dated 2019).

In one experiment the test system is db/db mouse. Nature of the experiment: In vivo wound healing test, full-thickness back skin wounds. The settings on record: after treating for 18 days, dressing replaced every 48 hours. An excerpt:
According to the aforementioned results, the sustained-release composition of the present disclosure does have the ability to enhance the cell migration, the cell proliferation and the angiogenesis, and the ability to facilitate the wound healing of the sustained-release composition of the present disclosure is further confirmed by the following in vivo wound healing test. The animal model established method and the animal experiment procedures of the in vivo wound healing test in this experiment are complied with the “Laboratory Animal Care and Use Guide” published by the Council of Agriculture, Taiwan. The diabetic animal model used in this experiment is an 8-week-old BKS.Cg-Lepr^db/Lepr^db/JNarl mouse (also known as db/db mouse).
In the in vivo wound healing test, four symmetrically distributed rounded full-thickness wounds are created on the back skin of each mouse by the tissue sampler after the mice are anesthetized, wherein the diameter of each wound is 0.5 centimeter and the volume of each wound is 50 μL. The four wounds are applied with different treatments respectively and the dressing is replaced every 48 hours. […] The area changes of each wound at different time points are further analyzed by the image analysis software.

For another experiment, the system named is p38 protein. Nature of the experiment: Signaling molecule activation test, p38 phosphorylation by ELISA. The conditions noted are these: HUVEC. Type of experiment: cell-based, human. The protocol:
(§1) In the aforementioned description, the exogenous hydrogen sulfide can activate the signaling molecules related to the proliferation and the migration of the endothelial cells, such as ERK1/2 protein and p38 protein, so that the angiogenesis of the cells is enhanced. Thus, the ability to activate the signaling molecule of the sustained-release composition of the present disclosure is further estimated in this experiment. First, the human umbilical vein endothelial cells are seeded in a 6-well plate in a density of 10^5 cells per well. After incubating for 24 hours, the 1% FBS mediums containing the formula of the experimental group 1 or the experimental group 3 (all of them contain 25 mM D-glucose) respectively is added to each well of a 6-wells-plate. Finally, the cells are collected at specific time points and the phosphorylation level of p38 protein and ERK1/2 are quantified by the enzyme-linked immunosorbent assay (ELISA).

Experiment [1] has as its system human umbilical vein endothelial cells. Nature of the experiment: Tubular structure formation test on Matrigel. The experiment is classed as cell-based. The conditions noted are these: 25 mM D-glucose. The text has this: The human umbilical vein endothelial cells will migrate, arrange and form a tubular network structure without additional growth factors and the participation of other kinds of cells, thus the wound-healing efficiency is affected by the maintenance of the tubular structure of the cells as time goes on. Therefore, the ability to enhance cell migration and facilitate the angiogenesis of the sustained-release composition of the present disclosure is confirmed by the tubular structure formation test of the human umbilical vein endothelial cells. The specific experimental method is described below. First, 200 μL of the growth factor-reduced matrix Matrigel is added to each well of a 24-well plate respectively and then placed into the 37° C. incubator. After the growth factor-reduced matrix Matrigel is heated and become colloid, 2.5×10^4 of the human umbilical vein endothelial cells are seeded in each well of the aforementioned 24-well plate and then 200 μL of the medium (containing 25 mM D-glucose) is added to the wells respectively. […] Next, the tubular structure of each experimental group is observed via an inverted microscope at the time points of 6 hours, 12 hours, 24 hours and 48 hours, and the branching point number of each experimental group is calculated.

The next experiment has as its system ERK1/2 protein. The experiment is described as follows: Signaling molecule activation test, ERK1/2 phosphorylation by ELISA. Type of experiment: cell-based, human. The conditions noted are these: HUVEC. The protocol:
as §1
For orientation: An ELISA detects its analyte on a solid surface through an enzyme-linked reagent.

For the compound `S` [experimental group 1, sodium hydrosulfide], the “appearance of the wound” value in the experiment on db/db mouse is recorded as “unobvious”. Further, the “phosphorylation level of the p38 protein” value is reported as “decreased” in the experiment with p38 protein (after 24 hours and 48 hours); “significantly increased” in the experiment on p38 protein (first hour). The tubular structure entry in experiment [1] (after incubating for 6 hours) is “can be observed”. The “tubular structure disappeared rate” value in experiment [1] (up to 48 hours) is listed as “reduced”. For the same compound, the “phosphorylation level of the ERK1/2 protein” value in the experiment on ERK1/2 protein (after 24 hours and 48 hours) is “decreased”; in the experiment on ERK1/2 protein (first hour), “significantly increased”.
